For 4 compounds, IC50 results are on record in ChEMBL document CHEMBL1156643, “Kempopeptins A and B, serine protease inhibitors with different selectivity profiles from a marine cyanobacterium, Lyngbya sp” (J Nat Prod, 2008).

Each structure is given as a SMILES string.

Assay [1] is described as follows: Inhibition of pig pancreatic trypsin. Also on record: species or system Sus scrofa.
Assay [2] in a line: Inhibition of bovine alpha chymotrypsin. On the set-up: species or system Bos taurus.
The target of a further assay is Pancreatic elastase (Sus scrofa, UniProt P08419+P00772). The assay can be described thus: Inhibition of pig pancreatic elastase. It is filed as protein assay.

By IC50 is commonly meant the midpoint of a concentration-inhibition curve. With `CC(=O)N1CCC[C@H]1C(=O)N[C@H](C(=O)N[C@@H]1C(=O)N[C@@H](CC(C)C)C(=O)N[C@H]2CC[C@@H](O)N(C2=O)[C@@H](Cc2ccccc2)C(=O)N(C)[C@@H](Cc2ccc(O)cc2)C(=O)N[C@@H](C(C)C)C(=O)O[C@@H]1C)[C@@H](C)O` [KEMPOPEPTIN A], the IC50 in assay [1] is over 67 µM; in assay [2], 0.32 µM; against Pancreatic elastase, 2.6 µM.
Taken in the same sequence, the figures for `CCCC(=O)N[C@H](C(=O)N[C@@H]1C(=O)N[C@@H](CCCCN)C(=O)N[C@H]2CC[C@@H](O)N(C2=O)[C@@H]([C@@H](C)CC)C(=O)N(C)[C@@H](Cc2ccc(OC)c(Br)c2)C(=O)N[C@@H](C(C)C)C(=O)O[C@@H]1C)C(C)C` [KEMPOPEPTIN B] were 8.4 µM, over 67 µM and over 67 µM.
Consider `C/C=C1\NC(=O)[C@@H](NC(=O)[C@H](CCC(N)=O)NC(=O)CCCCC)[C@@H](C)OC(=O)[C@H](C(C)C)NC(=O)[C@H](Cc2ccc(O)cc2)N(C)C(=O)[C@H](Cc2ccccc2)N2C(=O)[C@H](CC[C@H]2O)NC1=O` [LYNGBYASTATIN 7], for which the IC50 in assay [1] was over 30 µM.
As for `C/C=C1\NC(=O)[C@@H](NC(=O)[C@H](CCC(N)=O)NC(=O)CCC)[C@@H](C)OC(=O)[C@H](C(C)C)NC(=O)[C@H](Cc2ccc(O)cc2)N(C)C(=O)[C@H](Cc2ccccc2)N2C(=O)[C@H](CC[C@H]2O)NC1=O` [SOMAMIDE B], the IC50 in assay [1] is over 30 µM; in assay [2], 0.0095 µM; against Pancreatic elastase it was 4.2 µM.
